Experimental data taken from ChEMBL document CHEMBL1201862, “PubChem BioAssay data set” (2004).
Active and inactive are the calls of the source.

Assays:
Estrogen receptor beta [1] = molecular target: T1, Estrogen receptor beta (Homo sapiens, UniProt Q92731); test: blockers of SRC-3 recruitment to ERβ – biochemical, ELISA, streptavidin-HRP readout, orthogonal assay, confirmation (AID 1060)
Estrogen receptor beta [2] = molecular target: T1, Estrogen receptor beta
Estrogen receptor = molecular target: T2, Estrogen receptor (Homo sapiens, UniProt P03372);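 note: potency for inhibiting coactivator peptide recruitment to the receptor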
T2 sequence (P03372 whole entry): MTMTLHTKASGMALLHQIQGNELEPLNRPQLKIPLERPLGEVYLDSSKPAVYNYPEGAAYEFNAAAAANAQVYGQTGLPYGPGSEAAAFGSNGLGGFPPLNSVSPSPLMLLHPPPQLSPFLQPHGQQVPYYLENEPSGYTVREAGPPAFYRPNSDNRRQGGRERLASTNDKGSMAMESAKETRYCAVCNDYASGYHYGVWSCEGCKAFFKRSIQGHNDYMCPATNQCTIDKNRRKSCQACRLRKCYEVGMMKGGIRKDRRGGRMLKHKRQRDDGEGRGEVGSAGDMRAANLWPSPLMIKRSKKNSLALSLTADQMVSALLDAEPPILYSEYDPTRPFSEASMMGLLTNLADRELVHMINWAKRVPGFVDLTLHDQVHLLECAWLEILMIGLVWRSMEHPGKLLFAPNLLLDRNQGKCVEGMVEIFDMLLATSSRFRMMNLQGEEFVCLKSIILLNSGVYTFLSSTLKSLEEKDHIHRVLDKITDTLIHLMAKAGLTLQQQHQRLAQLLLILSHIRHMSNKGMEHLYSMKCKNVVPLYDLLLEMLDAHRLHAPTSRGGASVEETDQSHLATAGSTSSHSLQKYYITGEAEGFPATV

[3] = molecular target: T3, Eukaryotic translation initiation factor 2-alpha kinase 3 (Homo sapiens, UniProt Q9NZJ5); test: Dose response cell-based high-throughput screening assay to measure PERK inhibition. [Related pubchem assays: 1416 ]; format: functional
T3 sequence (Q9NZJ5 whole entry): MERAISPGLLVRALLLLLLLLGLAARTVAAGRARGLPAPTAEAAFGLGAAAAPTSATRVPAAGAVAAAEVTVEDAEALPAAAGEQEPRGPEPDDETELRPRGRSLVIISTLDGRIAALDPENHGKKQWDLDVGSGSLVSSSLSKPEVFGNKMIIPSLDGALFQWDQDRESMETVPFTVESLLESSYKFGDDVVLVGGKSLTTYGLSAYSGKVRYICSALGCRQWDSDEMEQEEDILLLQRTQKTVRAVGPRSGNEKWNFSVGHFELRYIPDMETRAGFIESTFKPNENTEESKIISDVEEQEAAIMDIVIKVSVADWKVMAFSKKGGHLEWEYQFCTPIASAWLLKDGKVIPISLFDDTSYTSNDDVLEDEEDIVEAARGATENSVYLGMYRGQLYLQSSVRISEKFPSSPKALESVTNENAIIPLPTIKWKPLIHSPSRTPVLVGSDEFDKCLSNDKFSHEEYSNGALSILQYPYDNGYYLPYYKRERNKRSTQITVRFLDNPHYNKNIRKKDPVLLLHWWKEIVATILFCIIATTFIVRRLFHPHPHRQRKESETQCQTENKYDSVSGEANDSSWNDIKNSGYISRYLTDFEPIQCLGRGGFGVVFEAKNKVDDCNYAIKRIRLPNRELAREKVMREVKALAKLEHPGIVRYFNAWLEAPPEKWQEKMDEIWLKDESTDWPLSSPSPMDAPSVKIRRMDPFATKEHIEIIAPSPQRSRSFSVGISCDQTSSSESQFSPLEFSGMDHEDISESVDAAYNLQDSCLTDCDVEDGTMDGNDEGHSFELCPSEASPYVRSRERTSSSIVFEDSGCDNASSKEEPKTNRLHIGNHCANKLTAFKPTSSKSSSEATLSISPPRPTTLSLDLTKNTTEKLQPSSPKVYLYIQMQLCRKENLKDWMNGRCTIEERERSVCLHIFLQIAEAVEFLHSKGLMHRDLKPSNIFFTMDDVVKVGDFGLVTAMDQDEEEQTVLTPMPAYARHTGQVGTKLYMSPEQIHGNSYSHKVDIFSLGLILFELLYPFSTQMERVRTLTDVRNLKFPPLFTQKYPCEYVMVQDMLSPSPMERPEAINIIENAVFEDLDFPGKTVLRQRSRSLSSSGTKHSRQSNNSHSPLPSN

[4] = molecular target: T3, Eukaryotic translation initiation factor 2-alpha kinase 3; test: Counterscreen assay for PERK inhibitors: Dose response cell-based high throughput screening assay to measure inhibition of PERK at 6 hours. [Related pubchem assays: 1522, 1416 ]; format: functional
[5] = Luminescence Cell-Based Dose Confirmation HTS to Identify Inhibitors of Polyadenylation.; format: functional
[6] = mRNA 3' processing disruption, beta-gal signal increase – luminescence, S. cerevisiae SKY197-pL101, dose response (AID 2525); format: functional, cell-based
[7] = molecular target: Transitional endoplasmic reticulum ATPase (Homo sapiens, UniProt P55072); test: p97 ATPase inhibitors, dose response, biochemical (AID 1534)
[8] = molecular target: T4, High affinity choline transporter 1 (Homo sapiens, UniProt Q9GZV3); test: human choline transporter blockers, potency – cell-based, 5-point CRC, membrane potential dye, dose response (AID 504840); format: functional
T4 sequence (Q9GZV3 whole entry): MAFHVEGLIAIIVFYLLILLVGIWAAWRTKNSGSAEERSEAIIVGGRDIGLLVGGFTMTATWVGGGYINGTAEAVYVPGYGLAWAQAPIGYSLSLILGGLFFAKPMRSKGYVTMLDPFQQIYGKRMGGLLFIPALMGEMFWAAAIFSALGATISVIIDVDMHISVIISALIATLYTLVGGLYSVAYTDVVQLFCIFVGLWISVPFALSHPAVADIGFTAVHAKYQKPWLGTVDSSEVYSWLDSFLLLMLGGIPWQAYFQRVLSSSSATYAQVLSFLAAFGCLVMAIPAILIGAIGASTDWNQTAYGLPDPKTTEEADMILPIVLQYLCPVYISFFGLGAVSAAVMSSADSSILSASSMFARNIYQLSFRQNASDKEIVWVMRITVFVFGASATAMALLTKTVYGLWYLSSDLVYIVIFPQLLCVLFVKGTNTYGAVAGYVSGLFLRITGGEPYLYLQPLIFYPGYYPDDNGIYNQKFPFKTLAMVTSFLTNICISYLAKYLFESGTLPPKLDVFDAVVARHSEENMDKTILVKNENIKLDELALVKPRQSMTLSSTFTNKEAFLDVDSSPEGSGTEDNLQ

[9] = viability of uninfected HEp-2 cells – cell-based, HTS, cytotoxicity control for RSV inhibitor project, dose response (AID 2410); format: functional; details: human respiratory syncytial virus
[10] = molecular target: Transitional endoplasmic reticulum ATPase (Homo sapiens, UniProt P55072, C522A); test: C522A mutant p97 ATPase inhibitors, dose response, counter-screen for p97 inhibitor project, biochemical, luminescence (AID 1544)
[11] = molecular target: T4, High affinity choline transporter 1; test: human choline transporter blockers, potency – cell-based, 10-point CRC, membrane potential dye, dose response (AID 588401); format: functional;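 note: membrane potential dye fluorescence of choline-evoked depolarization via CHT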
[12] = molecular target: T5, Mannose-6-phosphate isomerase (Homo sapiens, UniProt P34949); test: MPI enzyme activity inhibition – biochemical, fluorescence intensity, coupled assay, primary screen (AID 1209)
T5 sequence (P34949 whole entry): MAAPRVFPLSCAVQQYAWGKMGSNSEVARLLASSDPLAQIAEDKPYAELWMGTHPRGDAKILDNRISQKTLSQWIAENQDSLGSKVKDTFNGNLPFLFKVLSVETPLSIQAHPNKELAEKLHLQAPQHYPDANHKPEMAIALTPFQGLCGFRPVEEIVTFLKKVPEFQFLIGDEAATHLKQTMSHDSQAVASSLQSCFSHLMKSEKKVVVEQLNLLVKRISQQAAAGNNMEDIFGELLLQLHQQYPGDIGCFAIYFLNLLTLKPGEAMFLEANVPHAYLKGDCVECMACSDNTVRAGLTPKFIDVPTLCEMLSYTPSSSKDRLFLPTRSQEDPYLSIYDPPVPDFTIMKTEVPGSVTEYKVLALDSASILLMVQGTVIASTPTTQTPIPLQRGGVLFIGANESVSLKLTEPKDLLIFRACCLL

[13] = molecular target: T5, Mannose-6-phosphate isomerase; test: MPI inhibition at elevated mannose 6-phosphate – biochemical, fluorescence intensity, high mannose 6-phosphate, primary screen (AID 1220)
[14] = molecular target: Glyceraldehyde-3-phosphate dehydrogenase (Homo sapiens, UniProt P04406)
[15] = viability loss of HPDE-C7K cells – cell-based, fluorescence, HTS, primary screen (AID 431); format: functional; details: Homo sapiens
Bcl-2-related protein A1 [16] = molecular target: T6, Bcl-2-related protein A1 (Mus musculus, UniProt Q07440); test: small-molecule antagonists of Bfl-1/BH3 interaction – biochemical, TR-FRET, mouse Bfl-1, confirmation (AID 621);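 note: TR-FRET binding of GST-Bfl-1 to FITC-labelled Bid peptide via terbium antibody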
T6 sequence (Q07440 whole entry): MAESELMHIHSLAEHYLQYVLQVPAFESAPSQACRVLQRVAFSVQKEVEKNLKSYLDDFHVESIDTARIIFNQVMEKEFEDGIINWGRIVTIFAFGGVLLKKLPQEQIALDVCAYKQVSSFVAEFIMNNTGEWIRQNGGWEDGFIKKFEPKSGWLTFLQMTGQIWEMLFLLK

Bcl-2-related protein A1 [17] = molecular target: T6, Bcl-2-related protein A1; test: Bfl-1 binding inhibitors, SAR follow-up, biochemical, fluorescence polarization (AID 1070)
[18] = HPDE-C7 pancreatic duct cell viability loss – fluorescence, HTS (AID 430); format: functional, cell-based; details: Homo sapiens
Bcl-2-related protein A1 [19] = molecular target: T6, Bcl-2-related protein A1; test: displacement of Bid BH3 peptide from Bfl-1 – biochemical, fluorescence polarization, FITC-Bid, mouse, primary screen (AID 432)
[20] = A Cell Based Secondary Assay To Explore Cytotoxicity of Compounds that Sensitize Mycobacterium Tuberculosis to Beta-Lactam Antibiotics.; format: functional
[21] = molecular target: T7, Rac GTPase-activating protein 1 (Homo sapiens, UniProt Q9H0H5); test: blockers of MgcRacGAP-driven Rac1 GTP hydrolysis – biochemical, ADP Hunter fluorescence, primary and confirmatory, confirmation (AID 624330); format: functional
T7 sequence (Q9H0H5 whole entry): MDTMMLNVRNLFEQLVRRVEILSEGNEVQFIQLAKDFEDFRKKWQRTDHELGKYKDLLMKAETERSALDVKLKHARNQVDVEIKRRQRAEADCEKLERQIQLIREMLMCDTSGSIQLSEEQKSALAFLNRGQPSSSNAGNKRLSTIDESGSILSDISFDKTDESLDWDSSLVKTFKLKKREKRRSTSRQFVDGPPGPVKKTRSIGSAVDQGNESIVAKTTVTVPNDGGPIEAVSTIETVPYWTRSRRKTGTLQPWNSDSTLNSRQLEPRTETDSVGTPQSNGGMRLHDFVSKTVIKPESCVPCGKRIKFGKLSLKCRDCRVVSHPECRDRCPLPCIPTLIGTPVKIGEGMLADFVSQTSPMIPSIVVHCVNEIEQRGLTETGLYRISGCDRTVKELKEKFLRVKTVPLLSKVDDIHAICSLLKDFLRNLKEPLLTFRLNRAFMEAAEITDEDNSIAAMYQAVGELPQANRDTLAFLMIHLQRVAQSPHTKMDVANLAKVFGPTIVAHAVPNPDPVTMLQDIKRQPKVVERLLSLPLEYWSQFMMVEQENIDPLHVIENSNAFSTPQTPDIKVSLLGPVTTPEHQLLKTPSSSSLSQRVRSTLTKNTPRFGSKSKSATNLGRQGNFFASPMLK

T1 sequence (Q92731 whole entry): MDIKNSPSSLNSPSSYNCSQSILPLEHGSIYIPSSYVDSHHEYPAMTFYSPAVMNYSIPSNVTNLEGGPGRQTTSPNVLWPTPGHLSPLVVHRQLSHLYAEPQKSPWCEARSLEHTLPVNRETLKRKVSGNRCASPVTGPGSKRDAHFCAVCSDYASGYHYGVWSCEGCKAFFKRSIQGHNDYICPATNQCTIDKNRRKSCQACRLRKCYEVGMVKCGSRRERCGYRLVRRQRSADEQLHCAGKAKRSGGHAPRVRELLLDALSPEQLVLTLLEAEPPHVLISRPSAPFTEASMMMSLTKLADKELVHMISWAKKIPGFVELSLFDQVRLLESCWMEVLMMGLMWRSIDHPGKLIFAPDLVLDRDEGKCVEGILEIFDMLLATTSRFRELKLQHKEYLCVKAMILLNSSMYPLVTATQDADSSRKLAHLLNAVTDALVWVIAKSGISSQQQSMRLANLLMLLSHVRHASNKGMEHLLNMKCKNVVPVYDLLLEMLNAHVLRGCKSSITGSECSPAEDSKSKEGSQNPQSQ
Chain of Transitional endoplasmic reticulum ATPase (Homo sapiens, UniProt P55072, C522A) (P55072 2-806 C522A limits assumed): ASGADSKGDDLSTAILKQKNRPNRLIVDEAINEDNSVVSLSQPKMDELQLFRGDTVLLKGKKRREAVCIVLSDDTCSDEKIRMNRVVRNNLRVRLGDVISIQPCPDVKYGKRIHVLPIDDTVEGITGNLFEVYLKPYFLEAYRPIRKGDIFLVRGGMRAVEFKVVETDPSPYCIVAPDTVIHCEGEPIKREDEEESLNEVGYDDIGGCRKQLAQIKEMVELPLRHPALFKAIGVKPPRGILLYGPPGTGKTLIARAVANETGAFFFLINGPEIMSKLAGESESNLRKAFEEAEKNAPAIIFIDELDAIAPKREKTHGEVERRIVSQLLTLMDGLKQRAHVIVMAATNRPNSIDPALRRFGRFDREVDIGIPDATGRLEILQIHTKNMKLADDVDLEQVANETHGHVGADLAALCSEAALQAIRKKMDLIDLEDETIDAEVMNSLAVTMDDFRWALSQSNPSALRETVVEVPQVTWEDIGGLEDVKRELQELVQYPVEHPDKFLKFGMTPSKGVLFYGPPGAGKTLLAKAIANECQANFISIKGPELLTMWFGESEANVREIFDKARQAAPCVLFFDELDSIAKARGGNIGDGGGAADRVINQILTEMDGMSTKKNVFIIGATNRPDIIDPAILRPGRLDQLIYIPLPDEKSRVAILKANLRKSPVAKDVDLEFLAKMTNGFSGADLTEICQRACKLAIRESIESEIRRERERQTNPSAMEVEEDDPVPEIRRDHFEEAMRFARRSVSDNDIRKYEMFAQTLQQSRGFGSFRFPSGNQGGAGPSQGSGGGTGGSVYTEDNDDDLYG
Chain of Glyceraldehyde-3-phosphate dehydrogenase (P04406 whole entry): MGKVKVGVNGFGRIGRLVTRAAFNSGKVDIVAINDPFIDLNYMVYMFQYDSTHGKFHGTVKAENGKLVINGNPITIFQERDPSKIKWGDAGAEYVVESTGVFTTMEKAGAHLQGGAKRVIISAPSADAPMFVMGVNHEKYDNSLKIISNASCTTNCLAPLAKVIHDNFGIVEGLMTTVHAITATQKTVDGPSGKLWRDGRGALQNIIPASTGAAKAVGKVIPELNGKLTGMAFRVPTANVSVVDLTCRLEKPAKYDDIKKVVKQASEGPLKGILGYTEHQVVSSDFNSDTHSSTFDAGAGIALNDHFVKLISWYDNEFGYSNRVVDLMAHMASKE
Chain of Transitional endoplasmic reticulum ATPase (Homo sapiens, UniProt P55072) (P55072 whole entry): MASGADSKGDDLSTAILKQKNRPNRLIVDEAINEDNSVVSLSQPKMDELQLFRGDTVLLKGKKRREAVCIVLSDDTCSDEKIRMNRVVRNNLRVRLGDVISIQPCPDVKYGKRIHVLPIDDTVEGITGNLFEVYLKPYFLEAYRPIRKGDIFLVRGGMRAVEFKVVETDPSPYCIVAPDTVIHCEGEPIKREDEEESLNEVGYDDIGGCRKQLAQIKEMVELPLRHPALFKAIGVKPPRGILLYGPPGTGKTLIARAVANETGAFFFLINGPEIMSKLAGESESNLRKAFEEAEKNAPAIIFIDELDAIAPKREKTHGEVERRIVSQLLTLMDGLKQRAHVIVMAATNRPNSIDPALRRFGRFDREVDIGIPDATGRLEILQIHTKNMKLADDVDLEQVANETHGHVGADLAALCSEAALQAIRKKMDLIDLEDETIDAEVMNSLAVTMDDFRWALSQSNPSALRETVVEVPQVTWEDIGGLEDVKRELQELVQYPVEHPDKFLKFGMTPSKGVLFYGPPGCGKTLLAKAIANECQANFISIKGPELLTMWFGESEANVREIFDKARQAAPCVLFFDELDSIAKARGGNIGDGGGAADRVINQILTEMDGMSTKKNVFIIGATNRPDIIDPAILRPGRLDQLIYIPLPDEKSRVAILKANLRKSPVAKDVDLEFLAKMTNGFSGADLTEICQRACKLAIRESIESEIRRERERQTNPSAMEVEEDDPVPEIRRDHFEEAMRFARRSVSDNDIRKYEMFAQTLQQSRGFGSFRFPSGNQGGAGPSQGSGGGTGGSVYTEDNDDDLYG

Structure (SMILES): O=C(CSc1nnc(-c2ccc(OC(F)F)cc2)o1)NC(=O)NCc1ccco1
- IC50 (Estrogen receptor beta [1]): > 109 µM (not active)
- IC50 (Estrogen receptor beta [2]): 15.9 µM (active)
- IC50 (Estrogen receptor): 11.6 µM (active)

Structure (SMILES): COc1ccc(-c2csc(NC(=O)CSc3nc(C)cs3)n2)cc1
- EC50 [3]: > 55.7 µM (not active)
- EC50 [4]: > 55.7 µM (not active)

Structure (SMILES): Cc1ccc(-c2nn3c(C)nnc3s2)cc1NC(=O)CSc1ccc(Cl)cc1
- EC50 [5]: 24.7 µM (active)
- EC50 [6]: 3.08 µM (active)

Structure (SMILES): CC(=O)c1cc2c(cc1N)OCO2
- EC50 [3]: > 55.7 µM (not active)
- EC50 [4]: > 55.7 µM (not active)

Structure (SMILES): CC(=O)Oc1cc2c3c(c1)/C(=C1/SC(=S)NC1=O)C(=O)N3C(C)(C)C=C2C
- IC50 [7]: > 50 µM (not active)
- IC50 (cells): 12.5 µM (active)
- IC50 [8]: 1.21 µM (active)
- CC50 [9]: 14.3 µM (active)
- IC50 [10]: > 50 µM (not active)
- IC50 [11]: 6.48 µM (active)

Structure (SMILES): Cc1ccc(-n2c(N)c(C(N)=O)sc2=S)c(C)c1
- IC50 [12]: > 50 µM (not active)
- IC50 [13]: > 50 µM (not active)

Structure (SMILES): Cc1ccc(Nc2c(-c3ccc(C)o3)nc3ncccn23)cc1
- EC50 [5]: 11.6 µM (active)
- EC50 [6]: > 500 µM (not active)

Structure (SMILES): COc1ccc2c3c(cccc13)NN=C2C
- IC50 [14]: > 100 µM (not active)
- EC50 [15]: 9.74 µM (active)
- IC50 (Bcl-2-related protein A1 [16]): > 100 µM (not active)
- IC50 (Bcl-2-related protein A1 [17]): > 100 µM (not active)
- EC50 [18]: 13 µM (active)
- IC50 (Bcl-2-related protein A1 [19]): 5.44 µM (active)

Structure (SMILES): CCN(CC)c1ccc(NC(=O)c2cc(Cl)ccc2OC)cc1
- CC50 [20]: > 40 µM (active)

Structure (SMILES): Cc1cccc(-n2nc([N+](=O)[O-])c(NC3CCN(Cc4ccccc4)CC3)[n+]2[O-])c1
- CC50 [20]: > 40 µM (active)

Structure (SMILES): CC(=O)Oc1ccc2c(=O)c(Oc3ccccc3)coc2c1OC(C)=O
- IC50 [21]: 108 µM (active)
- IC50 [12]: > 50 µM (not active)
